# Laboratory results published in patent publication US10113114B2, “Apparatus and method for coating particulate material” (BASF Corporation, priority 2013, dated 2018).
# System: red imported fire ant (Solenopsis invicta) workers
# Conditions: all rates tested (0.5 to 3 X label rate)
# Text: Testing with red imported fire ant (Solenopsis invicta, RIFA), Argentine ant (Linepthema humile), and odorous house ant (OHA) workers. Ten inch plastic arenas (inside walls coated with Fluon® to prevent escape) were provided a layer of moistened play sand. A band of mulch was placed across the arena near one side. Between the closest side and the mulch, a micro-centrifuge tube with a universal ant diet was placed. In the larger open area of the arena was placed a water vial and a small weigh boat with either corn grit+soybean oil (RIFA) or 20% honey water (Argentine ant and OHA). Approximately 100 ants were placed in each arena. Mortality was evaluated at 6 or 7 days.
smiles,measurement,value
CN/C(=N/CC1CCOC1)N[N+](=O)[O-] (stereo not shown) [dinotefuran],efficacy of the insecticide on mulch (in words),effective at all rates tested
